Where a SMILES comes first, the peptide text is derived from it.
Key:
[1] = Qualitative solubility of test peptides in 0.5 N saline; format: physicochemical; conditions: pH 6.5, 20° C. (table title)
How it was run: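 Weighed peptide (1 to 5 mg) titrated with 25 μL aliquots of 0.5 N saline, pH 6.5, at 25° C until dissolution judged visually. Solubility calculated from volume needed; complete dissolution in first aliquot reported as greater than, non-dissolution as less than, the calculated value.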

HBE1 cells = assay: PMA-induced mucin hypersecretion in human bronchial epithelial cells (air/liquid interface, MUC5A ELISA); format: cell-based
Experimental: HBE1 is a papilloma virus-transformed human bronchial epithelial cell line capable of mucin secretion when cultured in air/liquid interface. HBE1 cells were cultured in the air/liquid interface as described previously (Li et al, J. Biol. Chem., volume 276, pp 40982-40990, 2001). Briefly, HBE1 cells were cultured in air/liquid interface by seeding an appropriate number of cells in 12-well Transwell clear culture inserts (Costar, Cambridge, Mass.) that were thinly coated with rat tail collagen, type I (Collaborative Biomedical, Bedford, Mass.). Cells were initially cultured submerged in medium in a humidified 95% air, 5% CO2 environment for 5-7 days until nearly confluent. At that time, the air/liquid interface was created by removing the apical medium and feeding cells basalaterally. Medium was renewed daily thereafter. Cells were cultured for an additional 14 days to allow full differentiation. The accumulated mucin at the apical surface of the cells was removed by washing with phosphate-buffered saline, pH 7.2. To collect the baseline mucin secretion, cells were incubated for 30 min with medium alone and secreted mucin in the apical medium was collected, and quantitated by ELISA. To determine the mucin hypersecretion induced by a mucin secretagogue, cells were exposed to medium containing 0.5 μM phorbol myristate acetate, (PMA) for 30 min. and mucin was collected and quantitated by ELISA. […] Six wells were used for each test peptides and for each control. Secreted mucin in the apical medium was collected and quantitated by sandwich ELISA method using alkaline phosphatase-conjugated mucin (MUC5A) specific antibody (Zymed Laboratories, San Francisco, Calif.).

## CC(=O)N[C@@H](C)C(=O)N[C@@H](CCCCN)C(=O)NCC(=O)N[C@@H](CCC(=O)O)C(=O)O [Ac-peptide 219] (Ac-AKGE-OH)
[1]
  solubility: > 200 mg/mL
HBE1 cells; 25 μM peptide, then 0.5 μM PMA
  Mucin secretion level below the unstimulated medium control: 20%
HBE1 cells; pretreatment with 25 μM peptide, then 0.5 μM PMA
  Block of PMA-induced increase in mucin secretion: 100%

## CC(=O)N[C@@H](C)C(=O)N[C@@H](C)C(=O)NCC(=O)N[C@@H](CCC(=O)O)C(=O)O [Ac-peptide 251] (Ac-AAGE-OH)
[1]
  solubility: > 200 mg/mL
HBE1 cells; peptide concentration not given, 0.5 μM PMA
  Inhibitory effect on PMA-induced increase in mucin secretion: 6%

Source: US9598463B2, “Mucin hypersecretion inhibitors and methods of use” (BIOMARCK PHARMACEUTICALS, LTD., priority 2005, dated 2017)
